# Measurements reported in ChEMBL document CHEMBL1201862, “PubChem BioAssay data set” (2004).
#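 Exposure lasted 48 hours, with cells grown in 96-well plates and compounds tested at five concentrations. GI50: concentration for 50% inhibition of growth.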 Activity calls are given as the source filed them. Rule as the data show it: active = GI50 up to about 1.1 µM and inactive = higher.
# How the values were obtained:
# Assay in all cases: inhibition of tumour cell growth, NCI panel, 48 h
# [1] = test system: 786-0
# [2] = test system: A549
# [3] = test system: ACHN
# [4] = test system: COLO 205
# [5] = test system: K562
# [6] = test system: KM12
# [7] = test system: MDA-N
# [8] = test system: NCI-H226
# [9] = test system: OVCAR-4
# [10] = test system: PC-3
# [11] = test system: SK-MEL-28
# [12] = test system: SK-MEL-5
# [13] = test system: SN12C
# [14] = test system: SNB-75
# [15] = test system: TK-10
# [16] = test system: UO-31
# [17] = test system: EKVX
# [18] = test system: IGROV-1
# [19] = test system: NCI/ADR-RES
# [20] = test system: SR
SMILES,GI50 [1],GI50 [2],GI50 [3],GI50 [4],GI50 [5],GI50 [6],GI50 [7],GI50 [8],GI50 [9],GI50 [10],GI50 [11],GI50 [12],GI50 [13],GI50 [14],GI50 [15],GI50 [16],GI50 [17],GI50 [18],GI50 [19],GI50 [20]
COC(=O)C1=C2SCc3cccc(c3)CSC3=C(C(=O)OC)SC(=C(S2)S1)S3,> 100 µM (inactive),> 100 µM (inactive),> 100 µM (inactive),> 100 µM (inactive),> 100 µM (inactive),> 100 µM (inactive),35.2 µM (inactive),> 100 µM (inactive),> 100 µM (inactive),35.5 µM (inactive),> 100 µM (inactive),> 100 µM (inactive),65.9 µM (inactive),> 100 µM (inactive),> 100 µM (inactive),> 100 µM (inactive),–,–,–,–
COC(=O)/C=C1\C(=O)Nc2ccc(Br)cc21,1.48 µM (inactive),3.15 µM (inactive),1.71 µM (inactive),1.67 µM (inactive),1.77 µM (inactive),2.53 µM (inactive),–,1.72 µM (inactive),2.23 µM (inactive),1.43 µM (inactive),2.68 µM (inactive),1.6 µM (inactive),1.62 µM (inactive),1.99 µM (inactive),1.56 µM (inactive),2.19 µM (inactive),1.77 µM (inactive),1.75 µM (inactive),1.91 µM (inactive),0.925 µM (active)
COc1oc(C2C/C(=C/C(C)=C/C(C)=C/C(C)=C/c3ccc([N+](=O)[O-])cc3)CO2)c(C)c(=O)c1C (stereo not given),5.64 µM (inactive),1.74 µM (inactive),1.12 µM (active),3.55 µM (inactive),< 0.01 µM (active),1.58 µM (inactive),2.74 µM (inactive),7.28 µM (inactive),3.5 µM (inactive),2.02 µM (inactive),6.1 µM (inactive),< 0.01 µM (active),2.57 µM (inactive),15.4 µM (inactive),10 µM (inactive),5.2 µM (inactive),2.58 µM (inactive),13.2 µM (inactive),–,< 0.01 µM (active)
NS(=O)(=O)c1nn2c(Br)c(-c3ccccc3)nc2s1,2.45 µM (inactive),6.44 µM (inactive),4.45 µM (inactive),5.24 µM (inactive),2.2 µM (inactive),4.85 µM (inactive),–,1.91 µM (inactive),10.6 µM (inactive),6.03 µM (inactive),9.06 µM (inactive),2.42 µM (inactive),2.92 µM (inactive),5.18 µM (inactive),6.37 µM (inactive),4.02 µM (inactive),15.8 µM (inactive),10.4 µM (inactive),3.84 µM (inactive),1.88 µM (inactive)
CC(C)N1[C@@H]2CCCC[C@H]2N(C(C)C)[PH]1=O,> 100 µM (inactive),> 100 µM (inactive),> 100 µM (inactive),> 100 µM (inactive),> 100 µM (inactive),> 100 µM (inactive),> 100 µM (inactive),> 100 µM (inactive),–,–,–,> 100 µM (inactive),> 100 µM (inactive),> 100 µM (inactive),> 100 µM (inactive),> 100 µM (inactive),> 100 µM (inactive),–,> 100 µM (inactive),> 100 µM (inactive)
O=C1c2cn[nH]c2N=C(Nc2ccccc2)C1/N=C/c1ccc([N+](=O)[O-])cc1 (stereo not given),> 10 µM (inactive),> 10 µM (inactive),> 10 µM (inactive),–,> 10 µM (inactive),> 10 µM (inactive),> 10 µM (inactive),> 10 µM (inactive),> 10 µM (inactive),> 10 µM (inactive),–,> 10 µM (inactive),> 10 µM (inactive),> 10 µM (inactive),> 10 µM (inactive),> 10 µM (inactive),> 10 µM (inactive),–,–,> 10 µM (inactive)
O=c1c2ccccc2nc(-c2cccc([N+](=O)[O-])c2)n1O,42.9 µM (inactive),34.9 µM (inactive),38.5 µM (inactive),31.3 µM (inactive),4.22 µM (inactive),36.5 µM (inactive),43.4 µM (inactive),23.7 µM (inactive),33 µM (inactive),–,> 100 µM (inactive),32.7 µM (inactive),24.2 µM (inactive),45.8 µM (inactive),94.2 µM (inactive),33.7 µM (inactive),36.8 µM (inactive),22.8 µM (inactive),23.3 µM (inactive),> 100 µM (inactive)
CN1CCN(Cc2ccccc2)CC1CC#N (stereo not given),> 100 µM (inactive),> 100 µM (inactive),> 100 µM (inactive),> 100 µM (inactive),> 100 µM (inactive),> 100 µM (inactive),> 100 µM (inactive),> 100 µM (inactive),> 100 µM (inactive),–,> 100 µM (inactive),> 100 µM (inactive),> 100 µM (inactive),> 100 µM (inactive),> 100 µM (inactive),> 100 µM (inactive),> 100 µM (inactive),> 100 µM (inactive),> 100 µM (inactive),> 100 µM (inactive)
CCCCCC(C)C[C@H]1CO[C@H](c2ccc[nH]2)N[C@H]1C(=O)OC (stereo not given in full),> 100 µM (inactive),> 100 µM (inactive),> 100 µM (inactive),> 100 µM (inactive),–,> 100 µM (inactive),> 100 µM (inactive),–,> 100 µM (inactive),> 100 µM (inactive),> 100 µM (inactive),> 100 µM (inactive),> 100 µM (inactive),–,> 100 µM (inactive),–,> 100 µM (inactive),> 100 µM (inactive),> 100 µM (inactive),–
Cc1cc2[nH]c3c(C#N)c(-c4ccccc4)c(/C=N/c4ccc(F)cc4)c(=O)n3c2cc1C,> 100 µM (inactive),49 µM (inactive),> 100 µM (inactive),> 100 µM (inactive),–,68.5 µM (inactive),59.7 µM (inactive),69.7 µM (inactive),> 100 µM (inactive),> 100 µM (inactive),> 100 µM (inactive),> 100 µM (inactive),> 100 µM (inactive),> 100 µM (inactive),> 100 µM (inactive),> 100 µM (inactive),> 100 µM (inactive),> 100 µM (inactive),> 100 µM (inactive),–
CN(C)c1ccc(/C=N/NC2=N/C(=C\c3ccco3)C(=O)N2)cc1,> 100 µM (inactive),> 100 µM (inactive),> 100 µM (inactive),> 100 µM (inactive),> 100 µM (inactive),> 100 µM (inactive),> 100 µM (inactive),> 100 µM (inactive),–,> 100 µM (inactive),> 100 µM (inactive),> 100 µM (inactive),> 100 µM (inactive),> 100 µM (inactive),> 100 µM (inactive),> 100 µM (inactive),> 100 µM (inactive),> 100 µM (inactive),> 100 µM (inactive),–
CC1C(c2ccccc2O)c2cc3c(cc2OC1N1CCOCC1)OCO3 (stereo not given),34.7 µM (inactive),25.6 µM (inactive),29.4 µM (inactive),21.2 µM (inactive),22.1 µM (inactive),27.3 µM (inactive),35.2 µM (inactive),25.3 µM (inactive),–,27.1 µM (inactive),40.6 µM (inactive),22.1 µM (inactive),37.1 µM (inactive),27.8 µM (inactive),30.3 µM (inactive),26.7 µM (inactive),34.3 µM (inactive),27.7 µM (inactive),–,12.5 µM (inactive)
C[C@]12CC[C@H]3[C@@H](CC=C4C[C@@H](N5CCCC5)CC[C@@]43C)[C@@H]1C/C(=C\c1ccc([N+](=O)[O-])cc1)[C@@H]2O,5.77 µM (inactive),17.1 µM (inactive),15.9 µM (inactive),16.6 µM (inactive),–,16.2 µM (inactive),–,18.5 µM (inactive),12.1 µM (inactive),24.3 µM (inactive),14.1 µM (inactive),15 µM (inactive),14.4 µM (inactive),–,17.5 µM (inactive),15.1 µM (inactive),–,14.8 µM (inactive),17.7 µM (inactive),1.88 µM (inactive)
Clc1ccc(-c2nn3c(C45CC6CC(CC(C6)C4)C5)nnc3s2)cc1,35.7 µM (inactive),> 100 µM (inactive),69.5 µM (inactive),> 100 µM (inactive),> 100 µM (inactive),> 100 µM (inactive),–,> 100 µM (inactive),34.4 µM (inactive),> 100 µM (inactive),> 100 µM (inactive),> 100 µM (inactive),> 100 µM (inactive),> 100 µM (inactive),> 100 µM (inactive),> 100 µM (inactive),> 100 µM (inactive),> 100 µM (inactive),> 100 µM (inactive),> 100 µM (inactive)
O=C(Cn1c(=O)ccn(C2OC(CO)C(O)C2F)c1=O)c1ccc(F)cc1 (stereo not given),> 100 µM (inactive),> 100 µM (inactive),> 100 µM (inactive),> 100 µM (inactive),> 100 µM (inactive),> 100 µM (inactive),> 100 µM (inactive),> 100 µM (inactive),–,> 100 µM (inactive),> 100 µM (inactive),> 100 µM (inactive),> 100 µM (inactive),82.2 µM (inactive),> 100 µM (inactive),> 100 µM (inactive),> 100 µM (inactive),> 100 µM (inactive),> 100 µM (inactive),–
